Data: US20070128217A1 (priority 2003, published 2007)

Experiments:
[1] = system: antibodies in sera from SARS patients (sera 1a, 1b, 2, 6, 37, 62, London, SARS-yellow, SARS-green); type: binding, human; parameters: Binding of serum 6 to linear peptides of protein X1 of SARS-CoV Urbani / Binding of serum 37 to linear peptides of protein X1 of SARS-CoV Urbani / Binding of serum 6 to looped/cyclic peptide (PEPSCAN-ELISA) / Binding of serum 37 to looped/cyclic peptide (PEPSCAN-ELISA) / Binding of serum 37 to looped/cyclic peptides of protein X1 of SARS-CoV Urbani / Binding of serum 6 to linear peptides of protein X2 / Binding of serum 37 to linear peptides of protein X2 / Binding of serum 37 to looped/cyclic peptides of protein X2 of SARS-CoV Urbani / Binding of serum 6 to linear peptides of protein M of SARS-CoV Urbani / Binding of serum 37 to linear peptides of protein M of SARS-CoV Urbani / Binding of serum 6 to looped/cyclic peptides of protein M of SARS-CoV Urbani / Binding of serum 37 to looped/cyclic peptides of protein M of SARS-CoV Urbani / Binding of serum 6 to linear peptides of protein X3 of SARS-CoV Urbani / Binding of serum 37 to linear peptides of protein X3 of SARS-CoV Urbani / Binding of serum 37 to looped/cyclic peptides of protein X3 of SARS-CoV Urbani / Binding of serum 6 to linear peptides of protein X4 of SARS-CoV Urbani / Binding of serum 37 to linear peptides of protein X4 of SARS-CoV Urbani / Binding of serum 37 to looped/cyclic peptides of protein X4 of SARS-CoV Urbani / Binding of serum 6 to linear peptides of protein X5 of SARS-CoV Urbani / Binding of serum 37 to linear peptides of protein X5 of SARS-CoV Urbani / Binding of serum 37 to looped/cyclic peptides of protein X5 of SARS-CoV Urbani / Binding of serum 6 to linear peptides of protein N of SARS-CoV Urbani / Binding of serum 37 to linear peptides of protein N of SARS-CoV Urbani / Binding of serum 6 to linear peptide (PEPSCAN-ELISA) / Binding of serum 1a to looped/cyclic peptides of protein N of SARS-CoV Urbani / Binding of serum 1b to looped/cyclic peptides of protein N of SARS-CoV Urbani / Binding of serum 2 to looped/cyclic peptides of protein N of SARS-CoV Urbani / Binding of serum 6 to looped/cyclic peptides of protein N of SARS-CoV Urbani / Binding of serum 37 to looped/cyclic peptides of protein N of SARS-CoV Urbani / Binding of serum 62 to looped/cyclic peptides of protein N of SARS-CoV Urbani / Binding of serum London to looped/cyclic peptides of protein N of SARS-CoV Urbani / Binding of serum SARS-green to looped/cyclic peptides of protein N of SARS-CoV Urbani: unit not given here
[2] = system: control sera (pooled serum of ten healthy LUMC hospital workers; commercial negative donor pooled serum from the Dutch bloodbank); type: binding, human; parameters: Binding of Control serum LUMC to linear peptides / Binding of Control serum Blood-bank to linear peptides / Binding of Control serum LUMC to looped peptides / Binding of Control Serum Blood-Bank to Looped peptides / Binding of Control serum LUMC to linear peptides of the protein M of SARS-CoV Urbani / Binding of Control serum Blood-bank to linear peptides of the protein M of SARS-CoV Urbani / Binding of Control serum LUMC to looped peptides of the protein M of SARS-CoV Urbani / Binding of Control Serum Blood-Bank to Looped peptides of the protein M of SARS-CoV Urbani: unit not given here
[3] = system: rabbit serum obtained by immunizing a rabbit with the SARS-CoV strain Frankfurt 1; type: binding; parameters: Binding of a rabbit serum to linear peptides / Binding of a rabbit serum to looped peptides / Rabbit serum linear peptides / Rabbit serum looped peptides / Binding of a rabbit serum to linear peptides of protein N of SARS-CoV Urbani (Rabbit serum linear peptides) / Binding of a rabbit serum to looped/cyclic peptides of protein N of SARS-CoV Urbani (Rabbit serum looped peptides): unit not given here

## KCKSKNPLLYDANYF
[1]
  Binding of serum 1a to linear peptides of protein X1 of SARS-CoV Urbani: 0.7
  Binding of serum 1a to looped/cyclic peptide (PEPSCAN-ELISA): 0.7
  Binding of serum 1b to linear peptides of protein X1 of SARS-CoV Urbani: 0.4
  Binding of serum 1b to looped/cyclic peptide (PEPSCAN-ELISA): 0.5
  Binding of serum 2 to linear peptides of protein X1 of SARS-CoV Urbani: 0.5
  Binding of serum 2 to looped/cyclic peptide (PEPSCAN-ELISA): 0.4
  Binding of serum 6 to linear peptides of protein X1 of SARS-CoV Urbani: 0.5
  Binding of serum 6 to looped/cyclic peptide (PEPSCAN-ELISA): 0.4
  Binding of serum 37 to linear peptides of protein X1 of SARS-CoV Urbani: 0.6
  Binding of serum 37 to looped/cyclic peptide (PEPSCAN-ELISA): 0.8
  Binding of serum 62 to linear peptides of protein X1 of SARS-CoV Urbani: 0.5
  Binding of serum 62 to looped/cyclic peptide (PEPSCAN-ELISA): 0.7
  Binding of serum London to linear peptides of protein X1 of SARS-CoV Urbani: 0.2
  Binding of serum London to looped/cyclic peptide (PEPSCAN-ELISA): 0.3
  Binding of serum SARS-green to linear peptides of protein X1 of SARS-CoV Urbani: 0.2
  Binding of serum SARS-green to looped/cyclic peptide (PEPSCAN-ELISA): 0.3
  Binding of serum SARS-yellow to linear peptides of protein X1 of SARS-CoV Urbani: 0.4
  Binding of serum SARS-yellow to looped/cyclic peptide (PEPSCAN-ELISA): 0.5
[2]
  Binding of Control Serum Blood-Bank to Looped peptides: 0.7
  Binding of Control serum Blood-bank to linear peptides: 0.6
  Binding of Control serum LUMC to linear peptides: 0.5
  Binding of Control serum LUMC to looped peptides: 0.7
[3]
  Binding of a rabbit serum to linear peptides: 0.2
  Binding of a rabbit serum to looped peptides: 0.6

## SSSLTSLLKTHRMCK
[1]
  Binding of serum 1a to linear peptides of protein X2: 0.6
  Binding of serum 1a to looped/cyclic peptides of protein X2 of SARS-CoV Urbani: 0.3
  Binding of serum 1b to linear peptides of protein X2: 0.5
  Binding of serum 1b to looped/cyclic peptides of protein X2 of SARS-CoV Urbani: 0.4
  Binding of serum 2 to linear peptides of protein X2: 0.4
  Binding of serum 2 to looped/cyclic peptides of protein X2 of SARS-CoV Urbani: 0.1
  Binding of serum 6 to linear peptides of protein X2: 0.8
  Binding of serum 6 to looped/cyclic peptides of protein X2 of SARS-CoV Urbani: 0.1
  Binding of serum 37 to linear peptides of protein X2: 0.6
  Binding of serum 37 to looped/cyclic peptides of protein X2 of SARS-CoV Urbani: 0.2
  Binding of serum 62 to linear peptides of protein X2: 0.7
  Binding of serum 62 to looped/cyclic peptides of protein X2 of SARS-CoV Urbani: 0.3
  Binding of serum London to linear peptides of protein X2: 0.6
  Binding of serum London to looped/cyclic peptides of protein X2 of SARS-CoV Urbani: 0.1
  Binding of serum SARS-green to linear peptides of protein X2: 0.6
  Binding of serum SARS-green to looped/cyclic peptides of protein X2 of SARS-CoV Urbani: 0.3
  Binding of serum SARS-yellow to linear peptides of protein X2: 0.2
  Binding of serum SARS-yellow to looped/cyclic peptides of protein X2 of SARS-CoV Urbani: 0.5
[2]
  Binding of Control Serum Blood-Bank to Looped peptides: 0.4
  Binding of Control serum Blood-bank to linear peptides: 1.0
  Binding of Control serum LUMC to linear peptides: 0.7
  Binding of Control serum LUMC to looped peptides: 0.4
[3]
  Binding of a rabbit serum to linear peptides: 0.3
  Binding of a rabbit serum to looped peptides: 0.2

## FRIAIWNLDVIISSI
[1]
  Binding of serum 1a to linear peptides of protein X3 of SARS-CoV Urbani: 0.8
  Binding of serum 1a to looped/cyclic peptides of protein X3 of SARS-CoV Urbani: 0.7
  Binding of serum 1b to linear peptides of protein X3 of SARS-CoV Urbani: 0.5
  Binding of serum 1b to looped/cyclic peptides of protein X3 of SARS-CoV Urbani: 0.5
  Binding of serum 2 to linear peptides of protein X3 of SARS-CoV Urbani: 0.6
  Binding of serum 2 to looped/cyclic peptides of protein X3 of SARS-CoV Urbani: 0.7
  Binding of serum 6 to linear peptides of protein X3 of SARS-CoV Urbani: 0.4
  Binding of serum 6 to looped/cyclic peptides of protein X3 of SARS-CoV Urbani: 0.3
  Binding of serum 37 to linear peptides of protein X3 of SARS-CoV Urbani: 0.5
  Binding of serum 37 to looped/cyclic peptides of protein X3 of SARS-CoV Urbani: 0.6
  Binding of serum 62 to linear peptides of protein X3 of SARS-CoV Urbani: 0.7
  Binding of serum 62 to looped/cyclic peptides of protein X3 of SARS-CoV Urbani: 0.6
  Binding of serum London to linear peptides of protein X3 of SARS-CoV Urbani: 0.7
  Binding of serum London to looped/cyclic peptides of protein X3 of SARS-CoV Urbani: 0.2
  Binding of serum SARS-green to linear peptides of protein X3 of SARS-CoV Urbani: 0.4
  Binding of serum SARS-green to looped/cyclic peptides of protein X3 of SARS-CoV Urbani: 0.2
  Binding of serum SARS-yellow to linear peptides of protein X3 of SARS-CoV Urbani: 0.7
  Binding of serum SARS-yellow to looped/cyclic peptides of protein X3 of SARS-CoV Urbani: 0.8
[2]
  Binding of Control Serum Blood-Bank to Looped peptides of the protein X3 of SARS-CoV Urbani: 0.8
  Binding of Control serum Blood-bank to linear peptides of the protein X3 of SARS-CoV Urbani: 0.7
  Binding of Control serum LUMC to linear peptides of the protein X3 of SARS-CoV Urbani: 0.6
  Binding of Control serum LUMC to looped peptides of the protein X3 of SARS-CoV Urbani: 0.7
[3]
  Rabbit serum linear peptides: 0.3
  Rabbit serum looped peptides: 0.2

## SSLTSLLKTHRMCKY
[1]
  Binding of serum 1a to linear peptides of protein X2: 0.6
  Binding of serum 1a to looped/cyclic peptides of protein X2 of SARS-CoV Urbani: 0.5
  Binding of serum 1b to linear peptides of protein X2: 0.5
  Binding of serum 1b to looped/cyclic peptides of protein X2 of SARS-CoV Urbani: 0.5
  Binding of serum 2 to linear peptides of protein X2: 0.4
  Binding of serum 2 to looped/cyclic peptides of protein X2 of SARS-CoV Urbani: 0.4
  Binding of serum 6 to linear peptides of protein X2: 0.5
  Binding of serum 6 to looped/cyclic peptides of protein X2 of SARS-CoV Urbani: 0.3
  Binding of serum 37 to linear peptides of protein X2: 0.5
  Binding of serum 37 to looped/cyclic peptides of protein X2 of SARS-CoV Urbani: 0.3
  Binding of serum 62 to linear peptides of protein X2: 0.6
  Binding of serum 62 to looped/cyclic peptides of protein X2 of SARS-CoV Urbani: 0.6
  Binding of serum London to linear peptides of protein X2: 0.4
  Binding of serum London to looped/cyclic peptides of protein X2 of SARS-CoV Urbani: 0.2
  Binding of serum SARS-green to linear peptides of protein X2: 0.5
  Binding of serum SARS-green to looped/cyclic peptides of protein X2 of SARS-CoV Urbani: 0.2
  Binding of serum SARS-yellow to linear peptides of protein X2: 0.3
  Binding of serum SARS-yellow to looped/cyclic peptides of protein X2 of SARS-CoV Urbani: 0.6
[2]
  Binding of Control Serum Blood-Bank to Looped peptides: 0.7
  Binding of Control serum Blood-bank to linear peptides: 0.8
  Binding of Control serum LUMC to linear peptides: 0.4
  Binding of Control serum LUMC to looped peptides: 0.6
[3]
  Binding of a rabbit serum to linear peptides: 0.3
  Binding of a rabbit serum to looped peptides: 0.5

## CALGKVLPFHRWHTM
[1]
  Binding of serum 1a to linear peptides of protein X5 of SARS-CoV Urbani: 0.7
  Binding of serum 1a to looped/cyclic peptides of protein X5 of SARS-CoV Urbani: 0.4
  Binding of serum 1b to linear peptides of protein X5 of SARS-CoV Urbani: 0.5
  Binding of serum 1b to looped/cyclic peptides of protein X5 of SARS-CoV Urbani: 0.2
  Binding of serum 2 to linear peptides of protein X5 of SARS-CoV Urbani: 0.7
  Binding of serum 2 to looped/cyclic peptides of protein X5 of SARS-CoV Urbani: 0.6
  Binding of serum 6 to linear peptides of protein X5 of SARS-CoV Urbani: 0.7
  Binding of serum 6 to looped/cyclic peptides of protein X5 of SARS-CoV Urbani: 0.4
  Binding of serum 37 to linear peptides of protein X5 of SARS-CoV Urbani: 0.8
  Binding of serum 37 to looped/cyclic peptides of protein X5 of SARS-CoV Urbani: 0.5
  Binding of serum 62 to linear peptides of protein X5 of SARS-CoV Urbani: 0.7
  Binding of serum 62 to looped/cyclic peptides of protein X5 of SARS-CoV Urbani: 0.3
  Binding of serum London to linear peptides of protein X5 of SARS-CoV Urbani: 0.7
  Binding of serum London to looped/cyclic peptides of protein X5 of SARS-CoV Urbani: 0.2
  Binding of serum SARS-green to linear peptides of protein X5 of SARS-CoV Urbani: 0.7
  Binding of serum SARS-green to looped/cyclic peptides of protein X5 of SARS-CoV Urbani: 0.4
  Binding of serum SARS-yellow to linear peptides of protein X5 of SARS-CoV Urbani: 0.1
  Binding of serum SARS-yellow to looped/cyclic peptides of protein X5 of SARS-CoV Urbani: 0.4
[2]
  Binding of Control Serum Blood-Bank to Looped peptides: 0.4
  Binding of Control serum Blood-bank to linear peptides: 0.8
  Binding of Control serum LUMC to linear peptides: 0.7
  Binding of Control serum LUMC to looped peptides: 0.6
[3]
  Rabbit serum linear peptides: 0.6
  Rabbit serum looped peptides: 1.0
